Measured values published in patent US11142515B2, “Pyrazolyl-ureas as kinase inhibitors” (RESPIVERT LIMITED, priority 2014, dated 2021).

Tests used:
[1] = target: T1, p38MAPKγ (MAPK12) (Homo sapiens, UniProt P53778); assay: p38 MAPKγ enzyme inhibition (Z-LYTE FRET); type: biochemical; settings: Table 2B, unit inferred; read-out: p38 MAPKγ (Enzyme Profile)
T1 construct: purchased Life Technologies
T1 sequence (P53778 1-367): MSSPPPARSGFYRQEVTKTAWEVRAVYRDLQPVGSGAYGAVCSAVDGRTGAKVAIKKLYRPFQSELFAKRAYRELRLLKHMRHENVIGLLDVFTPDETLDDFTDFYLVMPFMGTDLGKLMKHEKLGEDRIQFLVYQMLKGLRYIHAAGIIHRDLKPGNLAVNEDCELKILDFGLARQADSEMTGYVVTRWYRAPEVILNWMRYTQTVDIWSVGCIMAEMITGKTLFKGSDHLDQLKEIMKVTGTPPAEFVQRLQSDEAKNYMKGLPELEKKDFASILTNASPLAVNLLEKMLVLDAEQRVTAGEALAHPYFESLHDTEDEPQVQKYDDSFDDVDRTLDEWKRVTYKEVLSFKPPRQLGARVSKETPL
In short: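 Z-LYTE read-out: after 1 h protease development, only non-phosphorylated peptide is cleaved, and the donor/acceptor (coumarin/fluorescein) ratio reports phosphorylation. Beforehand, enzyme and compound (stock concentrations 0.0012–40 μg/mL) were preincubated 2 h at RT, then the kinase reaction ran 1 h at RT with peptide and ATP (8 μM and 400 μM stocks).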

[2] = target: T2, p38 MAPKα isoform (MAPK14) (Homo sapiens, UniProt Q16539); assay: p38 MAPKα enzyme inhibition (Z-LYTE FRET); type: biochemical; settings: Table 2B, unit inferred; read-out: p38 MAPKα (Enzyme Profile)
T2 construct: purchased Life Technologies
Description: The enzyme inhibitory activities of compounds disclosed herein were determined by FRET using synthetic peptides labelled with both donor and acceptor fluorophores (Z-LYTE, Life Technologies, Paisley, UK).
The inhibitory activities of compounds of the invention against the p38 MAPKα isoform (MAPK14: Life Technologies), were evaluated indirectly by determining the level of activation/phosphorylation of the target peptide of the p38 MAPKα down-stream molecule, MAPKAP-K2. The enzyme (40 ng/mL, 2.5 μL) was incubated with the test compound (2.5 μL of either 40 μg/mL, 12 μg/mL, 4 μg/mL, 1.2 μg/mL, 0.4 μg/mL, 0.12 μg/mL, 0.04 μg/mL, 0.012 μg/mL, 0.004 μg/mL or 0.0012 μg/mL) for 2 h at RT. […] Development reagent (protease, 5 μL) was added for 1 h prior to detection in a fluorescence microplate reader (EnVision, Perkin Elmer, Waltham, Mass., USA).
In all cases, the site-specific protease cleaves non-phosphorylated peptide only and eliminates the FRET signal. Phosphorylation levels of each reaction were calculated using the ratio of coumarin emission (donor) over fluorescein emission (acceptor), for which low ratios indicate high phosphorylation and high ratios indicate low phosphorylation levels.

T2 sequence (Q16539 whole entry, canonical isoform): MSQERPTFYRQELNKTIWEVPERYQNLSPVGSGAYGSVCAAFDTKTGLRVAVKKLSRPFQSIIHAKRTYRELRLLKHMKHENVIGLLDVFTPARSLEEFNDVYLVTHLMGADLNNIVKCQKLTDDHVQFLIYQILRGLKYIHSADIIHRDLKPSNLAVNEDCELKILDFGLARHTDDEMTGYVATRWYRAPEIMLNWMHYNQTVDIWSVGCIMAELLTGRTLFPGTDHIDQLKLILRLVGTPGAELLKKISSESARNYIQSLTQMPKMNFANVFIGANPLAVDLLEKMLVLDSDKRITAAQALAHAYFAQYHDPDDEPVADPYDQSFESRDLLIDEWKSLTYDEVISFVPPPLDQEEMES

Compound | IC50 [1] [nM] | IC50 [2] [nM]
CCc1ccc(-n2nc(C(C)(C)C)cc2NC(=O)Nc2ccc(OCc3ccnc(Nc4cnc(CO)cn4)c3)c3ccccc23)cc1 [Example 164, 1-(3-(tert-butyl)-1-(4-ethylphenyl)-1H-pyrazol-5-yl)-3-(4-((2-((5-(hydroxymethyl)pyrazin-2-yl)amino)pyridin-4-yl)methoxy)naphthalen-1-yl) urea] | 2340 | 6.8
CCc1nc(Nc2cc(COc3ccc(NC(=O)Nc4cc(C(C)(C)C)nn4-c4ccc(C)cc4)c4ccccc34)ccn2)cnc1C [Example 143, 1-(3-(tert-butyl)-1-(p-tolyl)-1H-pyrazol-5-yl)-3-(4-((2-((6-ethyl-5-methylpyrazin-2-yl)amino)pyridin-4-yl)methoxy)naphthalen-1-yl) urea] | 211 | 19
Cc1ccc(-n2nc(C(C)(C)C)cc2NC(=O)Nc2ccc(OCc3ccnc(Nc4cnc(C(=O)N5CCN(C)CC5)cn4)c3)c3ccccc23)cc1 [Example 136, 1-(3-(tert-butyl)-1-(p-tolyl)-1H-pyrazol-5-yl)-3-(4-((2-((5-(4-methylpiperazine-1-carbonyl)pyrazin-2-yl)amino)pyridin-4-yl)methoxy)naphthalen-1-yl)urea] | 41 | < 0.41
Cc1ccc(-n2nc(C(C)(C)C)cc2NC(=O)Nc2ccc(OCc3ccnc(Nc4cnc(C(=O)NCCC(C)(C)O)cn4)c3)c3ccccc23)cc1 [Example 72] | 118 | 11
Cc1ccc(-n2nc(C(C)(C)C)cc2NC(=O)Nc2ccc(OCc3ccnc(Nc4cnc(C(=O)N5CC[C@H](O)C5)cn4)c3)c3ccccc23)cc1 [Example 126, (S)-1-(3-(tert-butyl)-1-(p-tolyl)-1H-pyrazol-5-yl)-3-(4-((2-((5-(3-hydroxypyrrolidine-1-carbonyl)pyrazin-2-yl)amino)pyridin-4-yl)methoxy)naphthalen-1-yl)urea] | 187 | 47
COc1ccc(-n2nc(C(C)(C)C)cc2NC(=O)Nc2ccc(OCc3ccnc(Nc4cnccn4)c3)c3ccccc23)cc1F [Example 148, 1-(3-(tert-butyl)-1-(3-fluoro-4-methoxyphenyl)-1H-pyrazol-5-yl)-3-(4-((2-(pyrazin-2-ylamino)pyridin-4-yl)methoxy)naphthalen-1-yl)urea] | 247 | 13
COc1ccc(-n2nc(C(C)(C)C)cc2NC(=O)Nc2ccc(OCc3ccnc(Nc4cnc(CO)cn4)c3)c3ccccc23)cn1 [Example 177, 1-(3-(tert-butyl)-1-(6-methoxypyridin-3-yl)-1H-pyrazol-5-yl)-3-(4-((2-((5-(hydroxymethyl)pyrazin-2-yl)amino)pyridin-4-yl)methoxy)naphthalen-1-yl) urea] | 81 | 5.2
COCCN(CCOC)C(=O)c1cnc(Nc2cc(COc3ccc(NC(=O)Nc4cc(C(C)(C)C)nn4-c4cccc(C)c4)c4ccccc34)ccn2)cn1 [Example 76] | 148 | 15
CCc1cncc(Nc2cc(COc3ccc(NC(=O)Nc4cc(C(C)(C)C)nn4-c4ccc(OC)nc4)c4ccccc34)ccn2)n1 [Example 63] | 312 | 25
Cc1cc(-n2nc(C(C)(C)C)cc2NC(=O)Nc2ccc(OCc3ccnc(Nc4cncc(N(C)C)n4)c3)c3ccccc23)cs1 [Example 112, 1-(3-(tert-butyl)-1-(5-methylthiophen-3-yl)-1H-pyrazol-5-yl)-3-(4-((2-((6-(dimethylamino)pyrazin-2-yl)amino)pyridin-4-yl)methoxy)naphthalen-1-yl) urea] | 277 | 43
CO[C@@H]1CCN(C(=O)c2cnc(Nc3cc(COc4ccc(NC(=O)Nc5cc(C(C)(C)C)nn5-c5ccc(C)cc5)c5ccccc45)ccn3)cn2)C1 [Example 66] | 319 | 28

More lines, now with the values ahead:

IC50 [1] [nM] | IC50 [2] [nM] | Compound
180 | 16 | CC(C)(C)c1cc(NC(=O)Nc2ccc(OCc3ccnc(Nc4cnccn4)c3)c3ccccc23)n(-c2ccc(F)cc2)n1 [Example 187, 1-(3-(tert-butyl)-1-(4-fluorophenyl)-1H-pyrazol-5-yl)-3-(4-((2-(pyrazin-2-ylamino)pyridin-4-yl)methoxy)naphthalen-1-yl) urea]
> 14000 | 54 | COC1CN(C(=O)c2cnc(Nc3cc(COc4ccc(NC(=O)Nc5cc(C(C)(C)C)nn5-c5cccc(C)c5)c5ccccc45)ccn3)cn2)C1 [Example 224, 1-(3-(tert-butyl)-1-(m-tolyl)-1H-pyrazol-5-yl)-3-(4-((2-((5-(3-methoxyazetidine-1-carbonyl)pyrazin-2-yl)amino)pyridin-4-yl)methoxy)naphthalen-1-yl)urea]
> 15600 | 37 | CCOc1ccc(-n2nc(C(C)(C)C)cc2NC(=O)Nc2ccc(OCc3ccnc(Nc4cnccn4)c3)c3ccccc23)cc1C [Example 197, 1-(3-(tert-butyl)-1-(4-ethoxy-3-methylphenyl)-1H-pyrazol-5-yl)-3-(4-((2-(pyrazin-2-ylamino)pyridin-4-yl)methoxy)naphthalen-1-yl)urea]
117 | 18 | Cc1ccc(-n2nc(C(C)(C)C)cc2NC(=O)Nc2ccc(OCc3ccnc(Nc4cnc(C(=O)N5CCC[C@H](O)C5)cn4)c3)c3ccccc23)cc1 [Example 232, (S)-1-(3-(tert-butyl)-1-(p-tolyl)-1H-pyrazol-5-yl)-3-(4-((2-((5-(3-hydroxypiperidine-1-carbonyl)pyrazin-2-yl)amino)pyridin-4-yl)methoxy)naphthalen-1-yl)urea]
2040 | < 0.47 | CN(C)Cc1ccc(-n2nc(C(C)(C)C)cc2NC(=O)Nc2ccc(OCc3ccnc(Nc4cnccn4)c3)c3ccccc23)cc1 [Example 267, 1-(3-(tert-butyl)-1-(4-((dimethylamino)methyl)phenyl)-1H-pyrazol-5-yl)-3-(4-((2-(pyrazin-2-ylamino)pyridin-4-yl)methoxy)naphthalen-1-yl)urea]
460 | 47 | CCNC(=O)c1cnc(Nc2cc(COc3ccc(NC(=O)Nc4cc(C(C)(C)C)nn4-c4ccc(C)cc4)c4ccccc34)ccn2)cn1 [Example 191, 5-((4-(((4-(3-(3-(tert-butyl)-1-(p-tolyl)-1H-pyrazol-5-yl)ureido)naphthalen-1-yl)oxy)methyl)pyridin-2-yl)amino)-N-ethylpyrazine-2-carboxamide]
48 | 3.4 | Cc1ccc(-n2nc(C(C)(C)C)cc2NC(=O)Nc2ccc(OCc3ccnc(Nc4cnc(C(=O)N5CCNC(=O)CC5)cn4)c3)c3ccccc23)cc1 [Example 241, 1-(3-(tert-butyl)-1-(p-tolyl)-1H-pyrazol-5-yl)-3-(4-((2-((5-(5-oxo-1,4-diazepane-1-carbonyl)pyrazin-2-yl)amino)pyridin-4-yl)methoxy)naphthalen-1-yl)urea]
232 | 23 | COCc1cnc(Nc2cc(COc3ccc(NC(=O)Nc4cc(C(C)(C)C)nn4-c4ccc(C)cc4)c4ccccc34)ccn2)cn1 [Example 190, 1-(3-(tert-butyl)-1-(p-tolyl)-1H-pyrazol-5-yl)-3-(4-((2-((5-(methoxymethyl)pyrazin-2-yl)amino)pyridin-4-yl)methoxy)naphthalen-1-yl) urea]
> 15500 | 46 | Cc1ncc(Nc2cc(COc3ccc(NC(=O)Nc4cc(C(C)(C)C)nn4-c4cccc(Cl)c4)c4ccccc34)ccn2)nc1C [Example 179, 1-(3-(tert-butyl)-1-(3-chloro-phenyl)-1H-pyrazol-5-yl)-3-(4-((2-((5,6-dimethyl-pyrazin-2-yl)amino)pyridin-4-yl)methoxy)naphthalen-1-yl)urea]
263 | 13 | COCCN(C)C(=O)c1cnc(Nc2cc(COc3ccc(NC(=O)Nc4cc(C(C)(C)C)nn4-c4cccc(C)c4)c4ccccc34)ccn2)cn1 [Example 205, 5-((4-(((4-(3-(3-(tert-butyl)-1-(m-tolyl)-1H-pyrazol-5-yl)ureido)naphthalen-1-yl)oxy)methyl)pyridin-2-yl)amino)-N-(2-methoxyethyl)-N-methylpyrazine-2-carboxamide]
61 | 7 | Cc1ccc(-n2nc(C(C)(C)C)cc2NC(=O)Nc2ccc(OCc3ccnc(Nc4cnc(C(=O)N5C[C@H](O)[C@@H](O)C5)cn4)c3)c3ccccc23)cc1 [Example 247, 1-(3-(tert-butyl)-1-(p-tolyl)-1H-pyrazol-5-yl)-3-(4-((2-((5-((3S,4S)-3,4-dihydroxy-pyrrolidine-1-carbonyl)pyrazin-2-yl)amino)pyridin-4-yl)methoxy)naphthalen-1-yl)urea]
